This is an account of results in patent US20260159512A1, “BCAT2 INHIBITORS” (AGIOS PHARMACEUTICALS, INC., priority 2021, published 2026).

pIC50: −log10 of the molar value. Where “and” joins values, the source holds several entries; their conditions need not be identical. Equal entries are not always repeated.

Holding throughout (conditions): average where tested multiple times
Experiment [1] deals with T1, BCAT2 (Homo sapiens, UniProt O15382).
T1 sequence (O15382 28-392): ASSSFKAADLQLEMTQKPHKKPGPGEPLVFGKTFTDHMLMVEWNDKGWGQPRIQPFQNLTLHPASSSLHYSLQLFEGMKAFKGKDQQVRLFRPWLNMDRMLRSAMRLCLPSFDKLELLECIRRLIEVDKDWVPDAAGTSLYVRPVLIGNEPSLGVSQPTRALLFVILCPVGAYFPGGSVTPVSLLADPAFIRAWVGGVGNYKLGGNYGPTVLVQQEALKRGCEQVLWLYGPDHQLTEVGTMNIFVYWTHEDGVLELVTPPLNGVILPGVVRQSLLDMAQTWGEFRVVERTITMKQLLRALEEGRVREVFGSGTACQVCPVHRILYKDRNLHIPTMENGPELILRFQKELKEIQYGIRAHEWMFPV
Put plainly: BCAT2 in vitro enzyme inhibition assay (resazurin/diaphorase-coupled fluorescence). It is filed as biochemical. Summed up: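 Coupled fluorescence readout: glutamate formed from L-leucine/α-ketoglutarate transamination drives GDH/NAD/diaphorase reduction of resazurin (Ex 540/Em 590). Human BCAT2 was first exposed 1 h at room temperature to compound, top final 100 μM in 3-fold, 10-point series; substrate reaction ran 1 h before SDS quench, in technical duplicate with DMSO max and enzyme-free min controls.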

For a further experiment, the target named is T2, hBCAT1 (Homo sapiens, UniProt P54687).
T2 sequence (P54687 1-386): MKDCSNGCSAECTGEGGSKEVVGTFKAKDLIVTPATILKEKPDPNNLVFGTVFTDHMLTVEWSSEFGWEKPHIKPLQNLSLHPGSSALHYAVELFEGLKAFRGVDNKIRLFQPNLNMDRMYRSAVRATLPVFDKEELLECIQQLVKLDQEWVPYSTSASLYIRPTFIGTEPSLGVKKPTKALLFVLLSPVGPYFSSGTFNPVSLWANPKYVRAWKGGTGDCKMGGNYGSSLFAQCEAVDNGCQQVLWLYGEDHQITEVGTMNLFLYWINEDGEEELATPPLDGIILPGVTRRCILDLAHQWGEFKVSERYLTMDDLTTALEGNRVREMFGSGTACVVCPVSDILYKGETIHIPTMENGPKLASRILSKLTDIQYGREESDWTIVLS
Put plainly: BCAT1 in vitro enzyme inhibition assay (resazurin/diaphorase-coupled fluorescence). It is filed as biochemical. In outline: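 Ten-point, 3-fold compound series (top final 100 μM, delivered 1:50 from 50× DMSO stocks) tested against hBCAT1. Inhibition detected via diaphorase-coupled resazurin fluorescence, duplicate wells, with values from repeated runs averaged.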

In experiment [2] the target is T1, BCAT2. The experiment can be described thus: BCAT2 in vitro cell inhibition using engineered A549 cells (KMV cell assay, 13C6-KMV by LC-MS/MS). The arrangement: The result was an engineered A549 cell line that expressed endogenous BCAT2; endogenous in cells; host or cells: A549 cells with MUT and BCAT1 knocked out by CRISPR/CAS9; key to BCAT2 Cell Inhibition: A: less than or equal to 0.100 μM; B: greater than 0.100 and less than or equal to 0.500 μM; C: greater than 0.500 and less than or equal to 1.000 μM; d: greater than 1.000 μM; E: no fit. It is filed as cell-based.

`O=C(NC1CCCC(n2c(-c3ccccc3F)nc3cnc(-n4nccn4)cc32)C1O)c1ncc(Cl)s1` (stereo not drawn) [Example 112, 5-chloro-N-(3-(2-(2-fluorophenyl)-6-(2H-1,2,3-triazol-2-yl)-1H-imidazo[4,5-c]pyridin-1-yl)-2-hydroxycyclohexyl)thiazole-2-carboxamide]: the values for the pIC50 against BCAT2 [1], against hBCAT1 and against BCAT2 [2] were ≥ 7.00, > 6.30 and ≥ 7.00, respectively.

For the compound `O=C(N[C@H]1CCC[C@@H](n2c(-c3ccccc3O)nc3cnc(-c4nc[nH]n4)cc32)C1)c1ncc(Cl)s1` [Example 340, 5-chloro-N-((1S,3R)-3-(2-(2-hydroxyphenyl)-6-(1H-1,2,4-triazol-3-yl)-1H-imidazo[4,5-c]pyridin-1-yl)cyclohexyl)thiazole-2-carboxamide], the pIC50 (commonly −log10 of the IC50, conventionally taken in molar units) against BCAT2 [1] was ≥ 7.00; at hBCAT1, > 6.30; against BCAT2 [2], ≥ 7.00.

Regarding `Cc1nc(-c2cc3c(cn2)nc(CC(C)C)n3[C@@H]2CCC[C@H](NC(=O)c3ncc(Cl)s3)C2)cs1` [Example 158, 5-chloro-N-((1S,3R)-3-(2-isobutyl-6-(2-methylthiazol-4-yl)-1H-imidazo[4,5-c]pyridin-1-yl)cyclohexyl)thiazole-2-carboxamide], the pIC50 on BCAT2 [1] was ≥ 7.00; against hBCAT1, 5.30 to 6.00; against BCAT2 [2], < 6.00.

For the compound `C#Cc1ccc(C(=O)NC2CC(n3c(-c4ccccc4F)nc4cnc(-c5ncco5)cc43)CN(C)C2)s1` (stereo not drawn) [Example 116, 5-ethynyl-N-(5-(2-(2-fluorophenyl)-6-(oxazol-2-yl)-1H-imidazo[4,5-c]pyridin-1-yl)-1-methylpiperidin-3-yl)thiophene-2-carboxamide], the negative-log IC50 (pIC50) was ≥ 7.00 on BCAT2 [1], > 6.30 against hBCAT1 and ≥ 7.00 against BCAT2 [2].

With `O=C(O)Cc1ccccc1-c1nc2cnc(-n3nccn3)cc2n1[C@@H]1CCC[C@H](NC(=O)c2ncc(C(F)F)s2)C1` [Example 96, 2-(2-(1-((1R,3S)-3-(5-(difluoromethyl)thiazole-2-carboxamido)cyclohexyl)-6-(2H-1,2,3-triazol-2-yl)-1H-imidazo[4,5-c]pyridin-2-yl)phenyl)acetic acid], the pIC50 against BCAT2 [1] was 6.30 to 7.00; at hBCAT1 it was 5.30 to 6.00. Further, on BCAT2 [2], the “BCAT2 Cell Inhibition” value is recorded as “E”.

As for `O=C(N[C@H]1C[C@H](O)C[C@@H](n2c(-c3ccccc3F)nc3cnc(-n4nccn4)cc32)C1)c1ncc(C(F)F)s1` (single isomer, unassigned) [Example 108], the negative-log IC50 (pIC50) at BCAT2 [1] is ≥ 7.00; against hBCAT1 it was > 6.30; on BCAT2 [2], ≥ 7.00.

For the compound `O=C(N[C@H]1CCC[C@@H](n2c(-c3ccccc3F)nc3cnc(-c4cccnn4)cc32)C1)c1ncc(Cl)s1` [Example 188, 5-chloro-N-((1S,3R)-3-(2-(2-fluorophenyl)-6-(pyridazin-3-yl)-1H-imidazo[4,5-c]pyridin-1-yl)cyclohexyl)thiazole-2-carboxamide], the figures for the pIC50 on BCAT2 [1], against hBCAT1 and against BCAT2 [2] were ≥ 7.00, 5.30 to 6.00 and 6.30 to 7.00, respectively.

`CC(O)CN1CC(NC(=O)c2ncc(C(F)F)s2)CC(n2c(-c3ncccc3F)nc3cnc(-n4nccn4)cc32)C1` (stereo not drawn) [Example 129, 5-(difluoromethyl)-N-(5-(2-(3-fluoropyridin-2-yl)-6-(2H-1,2,3-triazol-2-yl)-1H-imidazo[4,5-c]pyridin-1-yl)-1-(2-hydroxypropyl)piperidin-3-yl)thiazole-2-carboxamide]: the negative-log IC50 (pIC50) on BCAT2 [1] was ≥ 7.00; on hBCAT1, < 5.30; at BCAT2 [2], < 6.00.

Take `O=C(N[C@H]1CCC[C@@H](n2c(-c3ccccc3F)nc3cnc(-c4ccccn4)cc32)C1)c1ncc(Cl)s1` [Example 104, 5-chloro-N-((1S,3R)-3-(2-(2-fluorophenyl)-6-(pyridin-2-yl)-1H-imidazo[4,5-c]pyridin-1-yl)cyclohexyl)thiazole-2-carboxamide]: the pIC50 against BCAT2 [1] was ≥ 7.00; at hBCAT1, > 6.30; against BCAT2 [2], ≥ 7.00.

With `Cn1nccc1-c1nc2cnc(-n3nccn3)cc2n1[C@@H]1CCC[C@H](NC(=O)c2ncc(C(F)F)s2)C1` [Example 43, 5-(difluoromethyl)-N-((1S,3R)-3-(2-(1-methyl-1H-pyrazol-5-yl)-6-(2H-1,2,3-triazol-2-yl)-1H-imidazo[4,5-c]pyridin-1-yl)cyclohexyl)thiazole-2-carboxamide], the pIC50 on BCAT2 [1] is ≥ 7.00; on hBCAT1, < 5.30; against BCAT2 [2], 6.00 to 6.30 and 6.30 to 7.00.

On to `O=C(N[C@H]1CCC[C@@H](n2c(-c3ccccc3F)nc3cnc(-c4nc[nH]n4)cc32)C1)c1ncc(C(F)F)s1` [Example 68, 5-(difluoromethyl)-N-[(1S,3R)-3-[2-(2-fluorophenyl)-6-(1H-1,2,4-triazol-3-yl)imidazo[4,5-c]pyridin-1-yl]cyclohexyl]thiazole-2-carboxamide], for which the pIC50 at BCAT2 [1] was ≥ 7.00; at hBCAT1, > 6.30; against BCAT2 [2], ≥ 7.00.

Take `O=C(N[C@H]1CCC[C@@H](n2c(Nc3ccccc3)nc3cnc(-n4nccn4)cc32)C1)c1ncc(C(F)F)s1` [Example 73, 5-(difluoromethyl)-N-((1S,3R)-3-(2-(phenylamino)-6-(2H-1,2,3-triazol-2-yl)-1H-imidazo[4,5-c]pyridin-1-yl)cyclohexyl)thiazole-2-carboxamide]: the pIC50 against BCAT2 [1] is ≥ 7.00; against hBCAT1 it was < 5.30; against BCAT2 [2], < 6.00.

`O=C(N[C@H]1CCC[C@@H](n2c(-c3ccccc3O)nc3cnc(-n4nccn4)cc32)C1)c1ncc(Cl)s1` [Example 363, 5-chloro-N-((1S,3R)-3-(2-(2-hydroxyphenyl)-6-(2H-1,2,3-triazol-2-yl)-1H-imidazo[4,5-c]pyridin-1-yl)cyclohexyl)thiazole-2-carboxamide]: the figures for the pIC50 on BCAT2 [1], against hBCAT1 and against BCAT2 [2] were ≥ 7.00, > 6.30 and ≥ 7.00, respectively.

For the compound `O=C(N[C@H]1CCC[C@@H](n2c(-c3ncccc3F)nc3cnc(-n4nccn4)cc32)C1)c1ccc(Br)s1` [Example 13, 5-bromo-N-((1S,3R)-3-(2-(3-fluoropyridin-2-yl)-6-(2H-1,2,3-triazol-2-yl)-1H-imidazo[4,5-c]pyridin-1-yl)cyclohexyl)thiophene-2-carboxamide], the negative logarithm of the IC50 (pIC50) against BCAT2 [1] is ≥ 7.00; against hBCAT1, > 6.30; at BCAT2 [2] it was ≥ 7.00.

Consider `CC(C)Cc1nc2cnc(-c3ccn(C(F)F)n3)cc2n1[C@@H]1CCC[C@H](NC(=O)c2ncc(Cl)s2)[C@H]1O` [Example 230, 5-chloro-N-((1S,2R,3R)-3-(6-(1-(difluoromethyl)-1H-pyrazol-3-yl)-2-isobutyl-1H-imidazo[4,5-c]pyridin-1-yl)-2-hydroxycyclohexyl)thiazole-2-carboxamide], for which the results for the pIC50 against BCAT2 [1], against hBCAT1 and against BCAT2 [2] were ≥ 7.00, 6.00 to 6.30 and < 6.00, respectively.

As to `COC(=O)N1C[C@H](NC(=O)c2ccc(Cl)s2)C[C@H](n2c(-c3ccccc3F)nc3cnc(-c4nc[nH]n4)cc32)C1` [Example 462, methyl (3R,5S)-3-(5-chlorothiophene-2-carboxamido)-5-(2-(2-fluorophenyl)-6-(1H-1,2,4-triazol-3-yl)-1H-imidazo[4,5-c]pyridin-1-yl)piperidine-1-carboxylate], the negative logarithm of the IC50 (pIC50) was ≥ 7.00 against BCAT2 [1], > 6.30 against hBCAT1 and ≥ 7.00 at BCAT2 [2].

As for `O=C(N[C@H]1CCC[C@@H](n2c(-c3ccccc3F)nc3cnc(-n4ccnn4)cc32)C1)c1ccc(Br)s1` [Example 14, 5-bromo-N-((1S,3R)-3-(2-(2-fluorophenyl)-6-(1H-1,2,3-triazol-1-yl)-1H-imidazo[4,5-c]pyridin-1-yl)cyclohexyl)thiophene-2-carboxamide], the negative-log IC50 (pIC50) against BCAT2 [1] was ≥ 7.00; against hBCAT1 it was > 6.30; at BCAT2 [2], ≥ 7.00.
